From patent publication US20240409536A1, “COMPOUNDS AND METHODS FOR MODULATING SPLICING” (REMIX THERAPEUTICS INC., priority 2021, published 2024) come the findings set out here.

One data set concerns SMN2 mRNA. Kind of data set: Gene panel canonical junction qPCR assay, SMN2 CJ mRNA decrease. The note with it: Homo sapiens, canonical junction qPCR, read-out: SMN2 IC50 (decrease in CJ mRNA levels). The class given is cell-based, human. In a few lines:
(§1)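 IC50 values describe loss of canonical-junction transcript, fitted by 4-parameter logistic to percent response derived from fixed ΔCt windows. Read-out: RT-qPCR on lysates of compound-treated K562 or A673 cells, probes overlapping the exon junction, ΔΔCt versus housekeeping gene and DMSO control.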
Background: Quantitative PCR measures a nucleic acid by following its amplification.

Another data set relates to MYB mRNA. Put plainly: Gene panel canonical junction qPCR assay, MYB CJ mRNA decrease. The note with it: Homo sapiens, canonical junction qPCR, read-out: MYB IC50 (decrease in CJ mRNA levels). The class given is cell-based, human. In a few lines:
as §1

In another data set the test system is HiBiT-tagged MYB protein. Put plainly: HiBiT protein abundance assay, MYB (K562 HiBiT knock-in cells). The class given is cell-based, human. The settings on record: 24 hours. The procedure, abridged:
(§2)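 K562 cells with endogenous HiBiT knock-in tag, 10-point 3-fold dilutions (top 10 μM final, ≤0.25% DMSO), 24 h at 37 °C. Lytic Nano-Glo HiBiT luminescence, normalized to DMSO and unmodified K562 baselines; IC50 is concentration giving 50% protein abundance from four-parameter fit.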

Another data set concerns Target C mRNA. Put plainly: Gene panel canonical junction qPCR assay, Target C CJ mRNA decrease. The class given is cell-based. The note with it: Homo sapiens, canonical junction qPCR, read-out: Target C IC50 (decrease in CJ mRNA levels). The procedure, abridged: as §1
A further data set concerns Target C. Kind of data set: HiBiT protein abundance assay, Target C (K562 HiBiT knock-in cells). The settings on record: 24 hours. The class given is cell-based, human. In a few lines:
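K562 knock-in cells (10000/well, IMDM+1% FBS) treated 24 h at 37 °C with 10-point 3-fold dilutions, top final 10 μM, DMSO ≤0.25%. HiBiT lytic luminescence read; response normalized to unmodified K562 and DMSO-treated controls. IC50 interpolated at 50% abundance by four-parameter logistic fit.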
For orientation: With HiBiT, luminescence reflects the tagged protein that the partner subunit can reach.

In another data set the test system is HTT mRNA. Put plainly: Gene panel canonical junction qPCR assay, HTT CJ mRNA decrease. The class given is cell-based, human. The note with it: Homo sapiens, canonical junction qPCR, read-out: HTT IC50 (decrease in CJ mRNA levels). In a few lines: as §1
Another data set has as its system HiBiT-tagged HTT protein. Put plainly: HiBiT protein abundance assay, HTT (K562 HiBiT knock-in cells). The class given is cell-based, human. The settings on record: 24 hours. In a few lines: as §2
For a further data set, the system named is K562 cells. Put plainly: Cell Titer Glo 2.0 cell viability assay in K562 cells. The settings on record: 72 hours. (In ATP-based viability assays light output follows the ATP content of the culture.)

In general, IC50 refers to the concentration that inhibits the measured activity by half. Take `Cc1cn2cc(NC(=O)c3c(F)cc(N4C[C@@H](C)N[C@@H](C)C4)c4nccnc34)cc(F)c2n1` [Compound 261, cis-8-[(3R,5S)-3,5-dimethylpiperazin-1-yl]-6-fluoro-N-{8-fluoro-2-methylimidazo[1,2-a]pyridin-6-yl}quinoxaline-5-carboxamide]: the IC50 in the data set on SMN2 mRNA was less than 100 nM; with MYB mRNA it was less than 100 nM; in the data set on HiBiT-tagged MYB protein it was less than 100 nM; in the data set on Target C mRNA, 1000 to 10000 nM; in the data set with Target C, 1000 to 10000 nM; in the data set on HTT mRNA, 1000 to 10000 nM. Moreover, in the data set with HiBiT-tagged HTT protein, the IC50 was in the range of 1000 to 10000 nM. In the data set with K562 cells, the Viability result was “B (B represents 100-1000 nM)”.
Consider `Cc1cn2cc(NC(=O)c3ccc(N4C[C@@H](C)N[C@@H](C5CC5)C4)c4nccnc34)cc(F)c2n1` [Compound 266, 8-((3S,5R)-3-cyclopropyl-5-methylpiperazin-1-yl)-N-(8-fluoro-2-methylimidazo[1,2-a]pyridin-6-yl)quinoxaline-5-carboxamide], for which the IC50 in the data set with SMN2 mRNA was less than 100 nM; with MYB mRNA, less than 100 nM; in the data set with HiBiT-tagged MYB protein, less than 100 nM; in the data set on Target C mRNA it was greater than 10000 nM; with Target C it was 100 to 1000 nM; in the data set with HTT mRNA, 1000 to 10000 nM. This compound also showed an IC50 in the data set with HiBiT-tagged HTT protein of 100 to 1000 nM. For the same compound, in the data set with K562 cells, the Viability result is listed as “B (B represents 100-1000 nM)”.
Turning to `Cc1cn2cc(NC(=O)c3ccc(N4C[C@@H](C5CC5)N[C@@H](C)C4)c4nccnc34)cc(F)c2n1` [Compound 267, 8-((3R,5S)-3-cyclopropyl-5-methylpiperazin-1-yl)-N-(8-fluoro-2-methylimidazo[1,2-a]pyridin-6-yl)quinoxaline-5-carboxamide], the concentration for half-maximal inhibition (IC50) is less than 100 nM in the data set on SMN2 mRNA; 100 to 1000 nM in the data set on MYB mRNA; 100 to 1000 nM in the data set on HiBiT-tagged MYB protein; 1000 to 10000 nM in the data set on Target C mRNA; greater than 10000 nM in the data set with Target C; greater than 10000 nM in the data set on HTT mRNA. The same compound had an IC50 in the data set on HiBiT-tagged HTT protein of 1000 to 10000 nM. For the same compound, the Viability result in the data set on K562 cells is given as “B (B represents 100-1000 nM)”.
Turning to `COc1ccc2c(N3C[C@@H](C)N[C@@H](C)C3)ccc(C(=O)Nc3cc(F)c4nc(C)cn4c3)c2n1` [Compound 268, 5-[(3R,5S)-3,5-dimethylpiperazin-1-yl]-N-{8-fluoro-2-methylimidazo[1,2-a]pyridin-6-yl}-2-methoxyquinoline-8-carboxamide], the IC50 in the data set with SMN2 mRNA is less than 100 nM; in the data set on MYB mRNA, 100 to 1000 nM; in the data set with HiBiT-tagged MYB protein it was less than 100 nM; in the data set on Target C mRNA, 1000 to 10000 nM; with Target C, 1000 to 10000 nM; with HTT mRNA it was 1000 to 10000 nM. Further, in the data set on HiBiT-tagged HTT protein, the IC50 was in the range of 1000 to 10000 nM. For the same compound, in the data set on K562 cells, the Viability result is listed as “B (B represents 100-1000 nM)”.
Take `Cc1cn2cc(NC(=O)c3ccc(N4CC[C@@H](N)C4)c4ccnnc34)cc(F)c2n1` [Compound 270]: the IC50 in the data set on SMN2 mRNA is less than 100 nM; with MYB mRNA, 100 to 1000 nM; in the data set with HiBiT-tagged MYB protein, 100 to 1000 nM; with Target C mRNA, greater than 10000 nM; with Target C it was 1000 to 10000 nM; in the data set with HTT mRNA it was 1000 to 10000 nM. This compound returned an IC50 in the data set on HiBiT-tagged HTT protein of 1000 to 10000 nM. The Viability entry in the data set with K562 cells is reported as “B (B represents 100-1000 nM)”.
Regarding `COc1cc2c(N3C[C@@H](C)N[C@@H](C)C3)ccc(C(=O)Nc3cc(F)c4nc(C)cn4c3)c2nn1` [Compound 273, 5-[(3R,5S)-3,5-dimethylpiperazin-1-yl]-N-{8-fluoro-2-methylimidazo[1,2-a]pyridin-6-yl}-3-methoxycinnoline-8-carboxamide], the IC50 in the data set with SMN2 mRNA is less than 100 nM; in the data set with MYB mRNA it was 100 to 1000 nM; in the data set with HiBiT-tagged MYB protein it was 100 to 1000 nM; with Target C mRNA it was 100 to 1000 nM; with Target C it was 100 to 1000 nM; in the data set with HTT mRNA, 100 to 1000 nM. In addition, in the data set on HiBiT-tagged HTT protein, the IC50 fell in the range of 100 to 1000 nM. The Viability result in the data set with K562 cells is recorded as “B (B represents 100-1000 nM)”.
For the compound `COc1nc(NC(=O)c2ccc(N3C[C@@H](C)N[C@@H](C)C3)c3nccnc23)cn2cc(C)nc12` [Compound 277], the IC50 with SMN2 mRNA is less than 100 nM; in the data set on MYB mRNA, less than 100 nM; with HiBiT-tagged MYB protein, less than 100 nM; with Target C mRNA it was 1000 to 10000 nM; in the data set with Target C it was 1000 to 10000 nM; in the data set on HTT mRNA, 100 to 1000 nM. In the data set with HiBiT-tagged HTT protein, this compound gave an IC50 of 100 to 1000 nM. For the same compound, in the data set with K562 cells, the Viability result is listed as “B (B represents 100-1000 nM)”.
